Measurements reported in patent publication US8399495B2, “Talarazole metabolites” (Stiefel Laboratories, Inc., priority 2006, dated 2013).

Legend:
[1] = Excretion of radioactivity (mass balance), mouse; format: in vivo; settings: 0-48 h, oral 5 mg/kg; for % in Feces (percent of dose recovered, total radioactivity) / % in Urine (percent of dose recovered, total radioactivity): 5 mg/kg
Source text: Mouse, rat, dog and human were the species used for the safety evaluations of talarozole. More specifically, the disposition of ^14C-labeled talarozole was examined in mice, rats, dogs and humans after oral administration to provide information regarding the absorption, metabolism and excretion of talarozole.
Male and female CD-1 mice (19-29 g, n=3/sex/timepoint for blood sampling, n=3/sex for mass balance), Sprague Dawley rats (0.205-0.237 kg, n=3/sex/timepoint for blood sampling, n=3/sex for mass balance) and beagle dogs (7-12 kg, n=3) were given a single oral dose of ^14C-labeled talarozole in 20% hydroxyl propyl B-cyclodextrin at 5 mg/kg. Healthy human male volunteers (76.6-107.9 kg, n=5) were dosed with a single oral dose of 4 mg ^14C-labeled rambazole in ethanol. Blood samples were collected at selected timepoints after dosing and plasma was prepared. Urine and feces were collected for 2, 7 and 8 days. For the human study, up to 288 hours post-dose and semen samples were obtained 2 and 4 hours post-dose. Radioactivity in various matrices were measured by liquid scintillation counting (LSC). Select plasma, urine and fecal samples were subjected to metabolite radioprofiling and characterization, and in the human study, semen samples. Metabolite radioprofiling was accomplished using HPLC with fraction collection followed by solid scintillation counting (Packard TopCount—see representative HPLC run data below). Radioactivity peaks were integrated and the percent distribution of individual metabolites in each sample was determined. Metabolite characterization and identification were accomplished by LC/MS (Finnigan MAT LCQ in positive or negative ESI mode) in conjunction with an appropriate radioactive monitor (RAM). For all species, plasma, urine and fecal samples were pooled across animals and analyzed. Plasma was analyzed at several time-points out to 24 hours. Urine was analyzed over one time-interval (0-24 hours for mouse, 0-48 hours for rat, 0-72 hours for dog, and for in the human study, 0-12, 12-24, 24-48, 0-48 hours. Feces was analyzed over 2-3 time intervals (0-24 and 24-48 hours for mouse and rat; 0-24, 24-48, and 48-72 hours for male dogs; and 24-48, 48-72, and 72-96 hours for female dogs). In the human study, feces were analyzed for 0-48, 48-96, 96-144, 144-192, 192-288, 0-144, 144-288 and 0-288 hours. PK parameters for ^14C-labeled talarozole radioactivity was determined from the mean (mouse and rat) or individual (dog and human) plasma concentration versus time data. PK parameter values were determined by non-compartmental methods using WinNonlin™. • HPLC data for separations described in Example 1: • LC system: Waters 2695 Separations Module • Analytic column: C18 column, 4.6×150 mm, 3 μm • Flow rate: 1.0 mL/min • Mobile phase A: 2% HCOOH in H2O (pH 3.2) • Mobile phase B: CH3CN • Gradient: […]

[2] = test system: vaginal keratinization induced by estrogenic treatment; assay: Inhibition of vaginal keratinization induced by estrogenic treatment in ovariectomized rats; format: in vivo, rat; settings: ovariectomized rats with estrogenic treatment; M4 oral during 3 days
Source text: Effects on Epithelial Differentiation in Rat Vagina: Inhibition of Vaginal Keratinization Induced by Estrogenic Treatment in Ovariectomized Rats by Oral Administration of Talarozole Metabolite M4
This animal model is based on the observation that retinoic acid (RA) suppresses the keratinization process in the stratified squamous epithelium of the vagina induced by estrogenic treatment in ovariectomized rats (Sietsema & DeLuca, 1982; Geiger & Weiser, 1989).

[3] = female, listed as 14C-Talarozole

% in Cage Rinse (percent of dose recovered) ([1]; female): 0.8% | Total % Recovered ([1]; female): 95.4% | % in Feces (percent of dose recovered, total radioactivity) [1, 3]: 91.59 F % | % in Urine (percent of dose recovered, total radioactivity) [1, 3]: 2.96 F % | % in Feces (percent of dose recovered, total radioactivity) ([1]; female, listed as 14C-labeled talarozole): 91.6% | % in Cage Rinse (percent of dose recovered) ([1]; male): 4.4% | Total % Recovered ([1]; male): 91.4% | % in Feces (percent of dose recovered, total radioactivity) ([1]; male, listed as 14C-Talarozole): 82.70 M % | % in Urine (percent of dose recovered, total radioactivity) ([1]; male, listed as 14C-Talarozole): 4.27 M % | % in Feces (percent of dose recovered, total radioactivity) ([1]; male, listed as 14C-labeled talarozole): 82.7%
SMILES: CCC(CC)[C@H](c1ccc(Nc2nc3ccccc3s2)cc1)n1cncn1 [Talarozole, (R)—N-[4-[2-ethyl-1-(1H-1,2,4-triazole-1-yl)butyl]phenyl]-2-benzothiazolamine]
ED50-value for complete suppression (keratinization score=0) [2]: 1.0 mg/kg/day
